# Experimental data taken from ChEMBL document CHEMBL1201862, “PubChem BioAssay data set” (2004).
# pIC50: −log10 of the molar value. The source made the active and inactive calls.
# Legend:
# [1] = biological target: T1, Corticotropin-releasing factor receptor 2/Corticotropin-releasing factor-binding protein (Homo sapiens, UniProt P24387+Q13324); assay: activators of CRF receptor 2 with binding protein – uHTS hits, confirmation (AID 602473); format: functional; conditions: read-out: EC50_Mean
# T1 sequence (Q13324 whole entry): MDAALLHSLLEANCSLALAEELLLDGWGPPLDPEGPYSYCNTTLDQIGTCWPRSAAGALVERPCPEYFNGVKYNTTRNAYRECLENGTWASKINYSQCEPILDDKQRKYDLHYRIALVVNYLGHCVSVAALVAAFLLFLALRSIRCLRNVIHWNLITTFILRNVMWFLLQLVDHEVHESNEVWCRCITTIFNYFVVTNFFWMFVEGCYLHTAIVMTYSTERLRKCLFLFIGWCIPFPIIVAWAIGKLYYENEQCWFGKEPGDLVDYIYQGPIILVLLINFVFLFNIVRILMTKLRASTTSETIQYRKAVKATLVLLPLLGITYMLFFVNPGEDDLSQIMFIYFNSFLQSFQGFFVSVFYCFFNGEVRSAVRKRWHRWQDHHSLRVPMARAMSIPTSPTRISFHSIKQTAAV
# T1 sequence (P24387 whole entry): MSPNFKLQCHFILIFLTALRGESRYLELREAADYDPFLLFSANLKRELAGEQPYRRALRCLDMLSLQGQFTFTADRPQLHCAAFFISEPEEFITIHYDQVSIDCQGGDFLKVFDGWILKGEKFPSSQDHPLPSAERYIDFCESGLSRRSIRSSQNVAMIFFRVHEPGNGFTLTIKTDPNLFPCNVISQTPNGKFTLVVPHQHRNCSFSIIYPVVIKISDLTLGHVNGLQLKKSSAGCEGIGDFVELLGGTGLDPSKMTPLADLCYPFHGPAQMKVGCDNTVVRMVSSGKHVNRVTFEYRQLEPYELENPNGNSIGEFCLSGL
# NS3 = NS3 (Hepatitis C virus, UniProt A3EZJ3); assay: PubChem AID 2173; set-up: species or system Hepacivirus hominis
# [2] = biological target: T2, Heat shock factor protein 1 (Mus musculus, UniProt P38532); assay: HSF1 potentiators in luciferase reporter cells, confirmation, cell-based, NIH3T3, luminescence, dose retest (AID 435004); format: functional;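 further: stress induced by proteasome inhibitor MG132 added 30 min after compound; luciferase reporter driven by HSF1 response element in NIH3T3 cells; actives raise luminescence as potentiators of the MG132 stress response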
# T2 sequence (P38532 whole entry): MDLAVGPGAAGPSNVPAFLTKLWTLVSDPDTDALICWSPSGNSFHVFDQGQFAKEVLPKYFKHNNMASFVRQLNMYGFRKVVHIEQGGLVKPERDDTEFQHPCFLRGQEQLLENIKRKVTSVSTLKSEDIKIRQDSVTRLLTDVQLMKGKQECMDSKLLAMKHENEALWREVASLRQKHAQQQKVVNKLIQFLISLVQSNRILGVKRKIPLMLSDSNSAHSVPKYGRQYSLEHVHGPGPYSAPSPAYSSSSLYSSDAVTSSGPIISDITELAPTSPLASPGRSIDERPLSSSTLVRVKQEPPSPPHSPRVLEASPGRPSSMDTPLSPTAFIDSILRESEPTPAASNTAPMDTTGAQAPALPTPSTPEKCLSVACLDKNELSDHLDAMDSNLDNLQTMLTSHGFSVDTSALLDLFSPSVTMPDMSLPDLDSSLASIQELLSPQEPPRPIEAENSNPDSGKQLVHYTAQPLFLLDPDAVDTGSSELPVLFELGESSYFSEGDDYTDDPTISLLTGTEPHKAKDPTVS
# [3] = miR-122 activators in hepatoma reporter cells, dose response, cell-based, Huh7 psiCHECK-miR122, Renilla luciferase, cherry-picked (AID 651956); format: functional;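 further: huh7 hepatoma cells stably carrying a psiCHECK-2 miR-122 sensor plasmid; renilla luciferase signal reporting endogenous miR-122 activity after 48 h compound exposure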
# [4] = biological target: T3, Kappa-type opioid receptor (Homo sapiens, UniProt P41145); format: functional
# Beta-galactosidase [5] = biological target: T4, Beta-galactosidase (Escherichia coli, UniProt Q8VNN2); format: functional
# Beta-galactosidase [6] = biological target: T4, Beta-galactosidase; assay: PubChem AID 485352; format: functional
# [7] = HEK293T cytotoxicity, dose response, cytotoxicity control for miR-122 modulator project, cell-based, activator set, cherry-pick (AID 720690); format: functional;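 further: HEK293T human cells scored for general mammalian cytotoxicity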
# Beta Lactamase = Beta Lactamase (Pseudomonas aeruginosa, UniProt Q932Y6); assay: beta-lactamase reporter inhibitor potency, dose response, artefact control for TLR9-MyD88 binding inhibitor project, BLA reporter cells, FRET fluorescence (AID 588341); format: cell-based;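 further: cell based assay in CHO-K1 cells stably expressing beta-lactamase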
# Protein RecA = biological target: T5, Protein RecA (Mycobacterium tuberculosis, UniProt P9WHJ3); assay: Fluorescence Cell-Free Homogeneous Dose Retest to Identify Inhibitors of RecA-Intein Splicing Activity. [Related pubchem assays (depositor defined):AID2097, AID2223, AID489010, AID492950]; format: functional
# T5 sequence (P9WHJ3 whole entry): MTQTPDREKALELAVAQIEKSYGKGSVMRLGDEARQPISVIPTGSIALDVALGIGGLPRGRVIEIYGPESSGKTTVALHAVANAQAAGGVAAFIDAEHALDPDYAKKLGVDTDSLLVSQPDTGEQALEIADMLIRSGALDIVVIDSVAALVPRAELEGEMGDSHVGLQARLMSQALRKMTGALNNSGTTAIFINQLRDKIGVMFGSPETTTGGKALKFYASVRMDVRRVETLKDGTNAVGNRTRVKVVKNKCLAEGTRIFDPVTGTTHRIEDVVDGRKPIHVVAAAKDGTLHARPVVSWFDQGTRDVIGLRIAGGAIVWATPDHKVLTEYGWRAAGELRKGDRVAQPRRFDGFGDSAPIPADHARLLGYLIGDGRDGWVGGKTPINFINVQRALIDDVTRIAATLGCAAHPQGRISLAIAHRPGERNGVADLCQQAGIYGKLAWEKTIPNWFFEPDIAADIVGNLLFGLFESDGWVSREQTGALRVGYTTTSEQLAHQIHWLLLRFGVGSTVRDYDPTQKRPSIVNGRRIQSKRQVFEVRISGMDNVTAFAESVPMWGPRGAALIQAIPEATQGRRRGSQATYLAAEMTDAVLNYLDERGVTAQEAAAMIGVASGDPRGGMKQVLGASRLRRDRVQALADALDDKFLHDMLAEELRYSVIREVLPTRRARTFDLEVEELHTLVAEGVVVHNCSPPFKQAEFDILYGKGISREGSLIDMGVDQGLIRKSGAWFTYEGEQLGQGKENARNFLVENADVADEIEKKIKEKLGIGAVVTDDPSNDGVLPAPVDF
# CHO = assay: cytotoxicity in TLR9-MyD88 CHO cells, dose response, cytotoxicity control for TLR9-MyD88 binding inhibitor project, cell-based, luminescence (AID 588339); format: functional, hamster; conditions: Cricetulus griseus;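 further: CHO cells stably coexpressing TLR9 and MyD88 fusions from primary screen; compound exposure lasted 48 hours before viability readout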
# [8] = biological target: T6, Type-1 angiotensin II receptor (Homo sapiens, UniProt P30556); assay: AT1 receptor antagonists, dose response, selectivity assay for APJ receptor antagonist project, cell-based, uHTS hits (AID 463214); format: functional;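 further: antagonist potency against angiotensin II stimulated AT1 response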
# T6 sequence (P30556 whole entry): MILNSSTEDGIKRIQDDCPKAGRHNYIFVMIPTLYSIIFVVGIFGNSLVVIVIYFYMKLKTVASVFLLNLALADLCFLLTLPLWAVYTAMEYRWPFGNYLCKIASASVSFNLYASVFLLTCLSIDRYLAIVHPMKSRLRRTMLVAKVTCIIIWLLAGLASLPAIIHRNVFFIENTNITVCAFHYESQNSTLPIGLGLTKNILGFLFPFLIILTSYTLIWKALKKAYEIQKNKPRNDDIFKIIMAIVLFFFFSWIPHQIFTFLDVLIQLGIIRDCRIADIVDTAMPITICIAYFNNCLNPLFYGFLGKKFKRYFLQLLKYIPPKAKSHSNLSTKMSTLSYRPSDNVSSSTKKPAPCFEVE
# INS1 = assay: beta cell apoptosis inhibitors, cytokine rescue, dose response, luminescence, retest (AID 449756); format: functional, cell-based; conditions: Rattus norvegicus;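 further: cell death triggered by IL-1 beta plus TNF-alpha plus IFN-gamma mixture; protective hits raise ATP signal compared with cytokine alone wells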
# [9] = biological target: T3, Kappa-type opioid receptor; format: functional; remark: listed apart in the source
# [10] = biological target: Sphingosine 1-phosphate receptor 4 (Homo sapiens, UniProt O95977); assay: Fluorescence dose response cell-based high throughput screening assay for antagonists of the Sphingosine 1-Phosphate Receptor 4 (S1P4). [Related pubchem assays: 1524 (Confirmation in triplicates.), 1510 (Primary screen.)]; format: functional
# [11] = HEK293T cytotoxicity, dose response, cytotoxicity control for miR-122 modulator project, cell-based, inhibitor set, cherry-pick, set 2 (AID 720697); format: functional
# [12] = biological target: Sphingosine 1-phosphate receptor 1 (Homo sapiens, UniProt P21453); format: functional;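 further: Tango beta-arrestin reporter U2OS cells stimulated with S1P near its EC80; inhibitor potency meaning antagonism of receptor activation by the natural agonist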
# [13] = biological target: T7, Replicative DNA helicase DnaB (Mycobacterium tuberculosis, UniProt P9WMR3); assay: DnaB intein splicing inhibitors, dose response, biochemical, cell-free fluorescence (AID 449749); format: functional
# T7 sequence (P9WMR3 whole entry): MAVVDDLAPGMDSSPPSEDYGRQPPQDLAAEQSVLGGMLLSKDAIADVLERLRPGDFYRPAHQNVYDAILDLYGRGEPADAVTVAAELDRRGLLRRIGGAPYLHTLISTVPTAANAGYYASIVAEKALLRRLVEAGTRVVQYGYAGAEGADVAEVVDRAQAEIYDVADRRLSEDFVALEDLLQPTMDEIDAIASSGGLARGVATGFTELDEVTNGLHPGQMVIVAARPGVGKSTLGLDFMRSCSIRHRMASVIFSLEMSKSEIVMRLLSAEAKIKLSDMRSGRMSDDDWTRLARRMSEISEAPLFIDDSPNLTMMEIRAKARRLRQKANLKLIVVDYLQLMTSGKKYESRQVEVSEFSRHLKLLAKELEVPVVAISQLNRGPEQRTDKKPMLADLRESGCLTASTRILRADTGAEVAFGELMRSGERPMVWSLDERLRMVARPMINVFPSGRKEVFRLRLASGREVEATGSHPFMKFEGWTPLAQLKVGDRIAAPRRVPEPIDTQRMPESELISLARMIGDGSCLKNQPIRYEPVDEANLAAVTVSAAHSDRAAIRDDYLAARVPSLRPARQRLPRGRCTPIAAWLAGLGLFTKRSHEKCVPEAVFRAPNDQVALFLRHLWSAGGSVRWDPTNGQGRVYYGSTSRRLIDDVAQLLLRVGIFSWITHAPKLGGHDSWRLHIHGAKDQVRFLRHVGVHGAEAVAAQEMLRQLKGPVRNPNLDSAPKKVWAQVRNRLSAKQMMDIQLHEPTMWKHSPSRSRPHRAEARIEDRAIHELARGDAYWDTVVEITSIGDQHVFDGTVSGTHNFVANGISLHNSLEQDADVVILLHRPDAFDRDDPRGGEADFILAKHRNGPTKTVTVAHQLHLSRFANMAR
# [14] = A549 cell cytotoxicity, dose response, cytotoxicity control, plate reader, cherry-pick, antagonist series (AID 743412); format: functional, cell-based
# [15] = cytotoxicity toward NIH3T3 fibroblasts, dose response, counter-screen, cell-based, ATP luminescence, mouse fibroblasts (AID 2010); format: functional;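 further: cells exposed to compound for about 90 hours before reading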
# [16] = biological target: T8, Microphthalmia-associated transcription factor (Homo sapiens, UniProt O75030); assay: TRPM1 promoter luciferase signal decrease, dose response, MITF inhibitor project, cell-based, SK-MEL-5, cherry-picked, set 3 (AID 493073); format: functional
# T8 sequence (O75030 whole entry): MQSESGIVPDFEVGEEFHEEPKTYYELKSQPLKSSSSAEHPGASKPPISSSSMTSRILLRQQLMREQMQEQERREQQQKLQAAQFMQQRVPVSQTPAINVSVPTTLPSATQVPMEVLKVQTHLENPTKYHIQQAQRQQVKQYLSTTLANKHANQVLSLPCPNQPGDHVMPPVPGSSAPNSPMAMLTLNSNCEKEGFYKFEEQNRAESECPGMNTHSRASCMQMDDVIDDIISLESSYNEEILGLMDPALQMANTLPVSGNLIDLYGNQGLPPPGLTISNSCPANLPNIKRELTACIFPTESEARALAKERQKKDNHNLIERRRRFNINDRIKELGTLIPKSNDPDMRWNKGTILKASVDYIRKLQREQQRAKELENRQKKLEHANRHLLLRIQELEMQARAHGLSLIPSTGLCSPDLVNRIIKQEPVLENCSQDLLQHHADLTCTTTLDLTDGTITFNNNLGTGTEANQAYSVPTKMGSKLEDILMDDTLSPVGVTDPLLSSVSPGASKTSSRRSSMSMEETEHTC
# [17] = LGR2 antagonists, dose response, cell-based, HEK293, CRE-luciferase reporter, cherry pick, set 2 (AID 743343); format: functional;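 further: transfected cells were stimulated with diluted bursicon conditioned medium after compound addition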
# [18] = MC4R antagonists, dose response, counter-screen for LGR2 antagonist project, cell-based, plate reader, cherry pick (AID 743444); format: functional;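 further: transfected HEK 293 cells stimulated with alpha-MSH peptide; potency of inhibitors of the alpha-MSH evoked signal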
# [19] = HEK293 cell cytotoxicity, dose response, cytotoxicity control, plate reader, cherry-picked samples (AID 743446); format: functional, cell-based
# Paired box protein Pax-8 = Paired box protein Pax-8 (Homo sapiens, UniProt Q06710); assay: inhibitors of PAX8-driven TPO luciferase reporter, dose response, RMG-I cells, cherry-pick (AID 687027); format: functional, cell-based;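 further: luciferase reporter driven by Pax8 target thyroperoxidase promoter measured by SteadyGlo luminescence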
# [20] = HepG2 cell cytotoxicity, dose response, cytotoxicity control, plate reader, cherry-pick, antagonist series (AID 743416); format: functional, cell-based
# [21] = inhibitors of PGC1a acetylation in cells, dose response, cell-based, cherry-picked samples (AID 720514); format: functional;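 further: potency may reflect raised or lowered acetylation signal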
# [22] = inhibitors of intracellular T. cruzi replication, confirmation, NIH3T3 host cells, beta-gal luminescence (AID 2044); format: functional, cell-based;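 further: intracellular parasites grown in NIH/3T3 mouse fibroblasts as host cells; luminescent beta-galactosidase reporter signal from transgenic T. cruzi replicating inside host cells; inhibitors lower the luminescence signal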
# T3 sequence (P41145 whole entry): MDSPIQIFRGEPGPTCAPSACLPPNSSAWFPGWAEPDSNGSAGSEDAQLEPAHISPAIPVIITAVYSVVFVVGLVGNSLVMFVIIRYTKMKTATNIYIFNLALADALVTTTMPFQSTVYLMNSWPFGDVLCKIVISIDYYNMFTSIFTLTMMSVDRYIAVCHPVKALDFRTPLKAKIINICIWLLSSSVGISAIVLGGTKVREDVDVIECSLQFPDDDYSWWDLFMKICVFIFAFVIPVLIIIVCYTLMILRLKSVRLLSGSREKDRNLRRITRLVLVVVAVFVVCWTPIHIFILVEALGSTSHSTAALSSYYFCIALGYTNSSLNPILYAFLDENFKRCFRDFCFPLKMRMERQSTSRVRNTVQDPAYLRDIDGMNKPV
# Chain of Sphingosine 1-phosphate receptor 4 (O95977 whole entry): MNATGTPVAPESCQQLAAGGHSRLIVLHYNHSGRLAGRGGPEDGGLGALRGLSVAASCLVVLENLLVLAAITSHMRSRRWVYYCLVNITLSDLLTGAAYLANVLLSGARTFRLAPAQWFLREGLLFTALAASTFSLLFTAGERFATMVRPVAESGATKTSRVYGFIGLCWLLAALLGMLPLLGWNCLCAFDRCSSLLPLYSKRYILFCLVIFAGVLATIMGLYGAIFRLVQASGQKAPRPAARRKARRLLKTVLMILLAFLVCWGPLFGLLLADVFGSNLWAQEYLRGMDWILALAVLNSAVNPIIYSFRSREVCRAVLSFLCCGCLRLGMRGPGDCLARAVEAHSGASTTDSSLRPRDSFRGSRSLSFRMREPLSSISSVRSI
# T4 sequence (Q8VNN2 whole entry): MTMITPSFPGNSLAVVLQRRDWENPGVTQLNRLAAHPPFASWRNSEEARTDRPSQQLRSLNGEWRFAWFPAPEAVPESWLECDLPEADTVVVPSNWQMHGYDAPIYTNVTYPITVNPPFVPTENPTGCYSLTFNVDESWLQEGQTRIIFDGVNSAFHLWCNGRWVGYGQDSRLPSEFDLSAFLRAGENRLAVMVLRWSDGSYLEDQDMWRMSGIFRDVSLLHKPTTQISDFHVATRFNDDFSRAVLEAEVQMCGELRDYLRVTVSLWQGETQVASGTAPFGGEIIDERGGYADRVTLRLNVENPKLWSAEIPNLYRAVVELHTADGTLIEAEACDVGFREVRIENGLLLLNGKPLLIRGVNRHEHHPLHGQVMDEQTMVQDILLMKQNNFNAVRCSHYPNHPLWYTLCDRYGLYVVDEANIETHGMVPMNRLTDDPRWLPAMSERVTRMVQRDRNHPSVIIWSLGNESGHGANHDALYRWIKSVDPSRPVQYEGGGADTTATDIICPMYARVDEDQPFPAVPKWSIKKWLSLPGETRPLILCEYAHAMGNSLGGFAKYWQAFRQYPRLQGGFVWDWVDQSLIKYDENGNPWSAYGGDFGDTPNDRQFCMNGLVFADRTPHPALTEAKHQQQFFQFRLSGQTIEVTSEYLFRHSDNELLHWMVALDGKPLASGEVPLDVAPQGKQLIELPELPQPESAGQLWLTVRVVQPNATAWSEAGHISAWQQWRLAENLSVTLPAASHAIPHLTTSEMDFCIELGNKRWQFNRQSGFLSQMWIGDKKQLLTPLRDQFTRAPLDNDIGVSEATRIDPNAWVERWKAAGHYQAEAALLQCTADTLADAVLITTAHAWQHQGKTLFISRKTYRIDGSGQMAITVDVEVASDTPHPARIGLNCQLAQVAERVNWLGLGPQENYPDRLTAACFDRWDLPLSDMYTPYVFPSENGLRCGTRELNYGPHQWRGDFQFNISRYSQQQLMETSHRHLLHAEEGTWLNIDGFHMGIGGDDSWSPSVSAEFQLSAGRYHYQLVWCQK
# Chain of Sphingosine 1-phosphate receptor 1 (P21453 whole entry): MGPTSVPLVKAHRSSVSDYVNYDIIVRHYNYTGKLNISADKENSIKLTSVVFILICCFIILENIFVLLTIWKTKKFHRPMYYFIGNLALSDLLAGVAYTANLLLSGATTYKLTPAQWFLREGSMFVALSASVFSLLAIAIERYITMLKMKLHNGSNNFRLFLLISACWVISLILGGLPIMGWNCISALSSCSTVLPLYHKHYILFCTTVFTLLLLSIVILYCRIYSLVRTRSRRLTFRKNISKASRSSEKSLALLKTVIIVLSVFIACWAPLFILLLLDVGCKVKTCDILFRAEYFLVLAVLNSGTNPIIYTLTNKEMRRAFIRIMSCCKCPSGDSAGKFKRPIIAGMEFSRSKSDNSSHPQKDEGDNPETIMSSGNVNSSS
# Chain of Paired box protein Pax-8 (Q06710 whole entry): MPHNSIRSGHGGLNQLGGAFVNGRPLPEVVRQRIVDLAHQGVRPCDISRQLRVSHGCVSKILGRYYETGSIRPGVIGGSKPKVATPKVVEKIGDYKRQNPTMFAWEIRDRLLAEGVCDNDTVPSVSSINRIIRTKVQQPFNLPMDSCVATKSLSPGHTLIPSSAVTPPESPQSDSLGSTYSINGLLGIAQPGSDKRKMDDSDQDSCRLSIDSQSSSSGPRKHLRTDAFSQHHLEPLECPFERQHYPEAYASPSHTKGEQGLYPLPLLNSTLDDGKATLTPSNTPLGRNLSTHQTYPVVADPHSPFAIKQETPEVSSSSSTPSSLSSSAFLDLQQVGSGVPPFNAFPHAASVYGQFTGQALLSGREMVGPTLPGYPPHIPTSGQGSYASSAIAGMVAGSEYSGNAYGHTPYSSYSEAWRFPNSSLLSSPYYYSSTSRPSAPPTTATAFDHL
# Chain of NS3 (A3EZJ3 whole entry): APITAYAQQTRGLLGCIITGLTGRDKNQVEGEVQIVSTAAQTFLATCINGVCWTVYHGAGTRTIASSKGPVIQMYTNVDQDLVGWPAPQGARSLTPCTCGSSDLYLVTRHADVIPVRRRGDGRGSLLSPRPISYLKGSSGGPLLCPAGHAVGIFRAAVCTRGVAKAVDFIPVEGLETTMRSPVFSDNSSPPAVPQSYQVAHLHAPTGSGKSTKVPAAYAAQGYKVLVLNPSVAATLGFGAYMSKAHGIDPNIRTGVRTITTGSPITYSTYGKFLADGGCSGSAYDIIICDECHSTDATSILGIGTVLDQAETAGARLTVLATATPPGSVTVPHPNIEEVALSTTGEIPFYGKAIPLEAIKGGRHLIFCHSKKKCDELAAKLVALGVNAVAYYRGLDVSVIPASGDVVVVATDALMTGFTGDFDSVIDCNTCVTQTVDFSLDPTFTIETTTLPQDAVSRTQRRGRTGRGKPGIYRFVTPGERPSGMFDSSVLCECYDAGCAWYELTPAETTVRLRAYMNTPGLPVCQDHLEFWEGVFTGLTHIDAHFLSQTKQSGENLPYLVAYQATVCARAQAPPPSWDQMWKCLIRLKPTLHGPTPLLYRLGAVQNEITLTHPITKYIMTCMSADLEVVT
# Chain of Beta Lactamase (Q932Y6 whole entry): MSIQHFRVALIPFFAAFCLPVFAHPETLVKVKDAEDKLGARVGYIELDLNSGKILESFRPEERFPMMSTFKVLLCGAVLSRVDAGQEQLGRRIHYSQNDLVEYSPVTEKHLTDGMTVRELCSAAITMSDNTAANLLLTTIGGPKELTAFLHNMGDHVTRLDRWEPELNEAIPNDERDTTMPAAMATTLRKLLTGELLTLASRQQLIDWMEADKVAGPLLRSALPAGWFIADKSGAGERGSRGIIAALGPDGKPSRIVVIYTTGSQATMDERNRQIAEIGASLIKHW
smiles,measurement,setting,value
Cc1cccc(N2C(=O)C(O)=C(C(=O)c3cccs3)C2c2ccc(C(C)C)cc2)n1 (stereo unspecified),EC50,[1],11.3 µM (active)
same,IC50,NS3,5.88 µM (active)
same,EC50,[2],> 260 µM (inactive)
CCn1c(Cl)c(C=O)s/c1=N\S(=O)(=O)c1ccccc1,AC50,[3],7.8 µM (active)
same,IC50,[4],11.8 µM (active)
same,EC50,Beta-galactosidase [5],> 31.5 µM (inactive)
same,EC50,Beta-galactosidase [6],> 40 µM (inactive)
same,AC50,[7],3.2 µM (active)
same,IC50,Beta Lactamase,12.5 µM (inactive)
same,EC50,Protein RecA,1.3 µM (active)
same,IC50,CHO,0.952 µM (active)
same,IC50,[8],2.24 µM (active)
same,AC50,INS1,5.12 µM (active)
same,pIC50,[9],5.31
same,IC50,[10],1.48 µM (active)
same,AC50,[11],1.84 µM (active)
same,IC50,[12],7.5 µM (active)
same,AC50,[13],18.2 µM (active)
same,EC50,[2],> 260 µM (inconclusive)
O=C1CN(C(=O)Cn2ncc(Cl)c(Cl)c2=O)c2ccccc2N1,AC50,[14],11.8 µM (active)
same,EC50,[15],2.61 µM (active)
same,AC50,[16],8.67 µM (active)
same,AC50,[17],18.7 µM (active)
same,AC50,[18],15.4 µM (active)
same,AC50,[19],8.59 µM (active)
same,AC50,Paired box protein Pax-8,2.19 µM (active)
same,AC50,[20],25.6 µM (active)
same,AC50,[21],4.16 µM (active)
same,EC50,[22],2.11 µM (active)
same,IC50,[10],3.18 µM (active)
same,IC50,[12],13.6 µM (not active)
